This is an account of results in patent US12662451B2, “Chemical compounds and uses thereof” (GLAXOSMITHKLINE INTELLECTUAL PROPERTY (NO.4) LIMITED, priority 2023, dated 2026).

Data set [1] concerns the target T1, recombinant full-length WRN protein (1-1432) (Homo sapiens, UniProt Q14191).
T1 construct: recombinant full-length WRN protein (1-1432)
Put plainly: WRN unwinding activity, fluorogenic 384-well assay (Example A). Type of data set: biochemical. Conditions: WRN unwinding activity, 4 hr; Table 2; read-out: 4 hr UNW pIC50 (converted). In a few lines:
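Read-out is end-point unwinding of a fluorophore/quencher duplex (ex 525, em 598 nm) after 60 min with 200 μM ATP and 12 nM DNA (2× stocks), EDTA stop. Compound first sat 4 h with 200 pM WRN (2× stock) in pH 8.0 Tris buffer; four-parameter fit gives pIC50.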

The nature of data set [2]: Cell culture media unbound percentage and stability by rapid equilibrium dialysis (Example C). Type of data set: in vitro ADME. Conditions: bovine, cell assay medium (RPMI-1640 with 10% fetal bovine serum), pH 7.4, rapid equilibrium dialysis, 4 hours at 37° C., read-out: Cell Culture Media Binding (% unbound). Summed up:
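Percent unbound in cell assay medium came from the LC-MS/MS receiver:donor peak area ratio, with stability taken as the 240 min over 0 min ratio. Set-up: 1 μM nominal compound in medium dialysed against pH 7.4 PBS (100 mM phosphate, 150 mM NaCl), 4 h, 37° C, shaken, in triplicate.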

Data set [3] concerns SW48 human colorectal cancer cells. Put plainly: Calculated free drug potency in SW48 cell assay, corrected with media free fraction (Example C). To be noted: for CC50: Homo sapiens, SW48, SW48 pCC50 corrected with measured free fraction in cell assay media. Type of data set: cell-based. In a few lines:
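Free drug potency derives from correcting SW48 assay concentrations with the unbound fraction in medium. That fraction came from RED against pH 7.4 PBS, 1 μM nominal compound, 4 h at 37 °C, quantified by LC-MS/MS peak area ratios at T=240 versus T=0 min.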

Data set [4] has as its system SW48 human colorectal cancer cells (MSI-H cancer cells). Put plainly: SW48 cell viability, CellTiter-Glo, 120 hours (Example B). To be noted: for CC50: Homo sapiens. Background: Cellular ATP, detected with luciferase, serves as a proxy for viable cell number.
Where [5] appears, read: SW48, 120 h, read-out: SW48 pCC50, SW48 cell viability, 120 hours incubation (converted), Table 2.
[6] abbreviates: SW48, read-out: SW48 pCC50, measured potency from Example B, as repeated in Table 3 (converted).
Where [7] appears, read: SW48 cell viability, 120 hours incubation, Table 2.

Read-outs that look alike come from different tables or passages of the source.

T1 sequence (Q14191 whole entry): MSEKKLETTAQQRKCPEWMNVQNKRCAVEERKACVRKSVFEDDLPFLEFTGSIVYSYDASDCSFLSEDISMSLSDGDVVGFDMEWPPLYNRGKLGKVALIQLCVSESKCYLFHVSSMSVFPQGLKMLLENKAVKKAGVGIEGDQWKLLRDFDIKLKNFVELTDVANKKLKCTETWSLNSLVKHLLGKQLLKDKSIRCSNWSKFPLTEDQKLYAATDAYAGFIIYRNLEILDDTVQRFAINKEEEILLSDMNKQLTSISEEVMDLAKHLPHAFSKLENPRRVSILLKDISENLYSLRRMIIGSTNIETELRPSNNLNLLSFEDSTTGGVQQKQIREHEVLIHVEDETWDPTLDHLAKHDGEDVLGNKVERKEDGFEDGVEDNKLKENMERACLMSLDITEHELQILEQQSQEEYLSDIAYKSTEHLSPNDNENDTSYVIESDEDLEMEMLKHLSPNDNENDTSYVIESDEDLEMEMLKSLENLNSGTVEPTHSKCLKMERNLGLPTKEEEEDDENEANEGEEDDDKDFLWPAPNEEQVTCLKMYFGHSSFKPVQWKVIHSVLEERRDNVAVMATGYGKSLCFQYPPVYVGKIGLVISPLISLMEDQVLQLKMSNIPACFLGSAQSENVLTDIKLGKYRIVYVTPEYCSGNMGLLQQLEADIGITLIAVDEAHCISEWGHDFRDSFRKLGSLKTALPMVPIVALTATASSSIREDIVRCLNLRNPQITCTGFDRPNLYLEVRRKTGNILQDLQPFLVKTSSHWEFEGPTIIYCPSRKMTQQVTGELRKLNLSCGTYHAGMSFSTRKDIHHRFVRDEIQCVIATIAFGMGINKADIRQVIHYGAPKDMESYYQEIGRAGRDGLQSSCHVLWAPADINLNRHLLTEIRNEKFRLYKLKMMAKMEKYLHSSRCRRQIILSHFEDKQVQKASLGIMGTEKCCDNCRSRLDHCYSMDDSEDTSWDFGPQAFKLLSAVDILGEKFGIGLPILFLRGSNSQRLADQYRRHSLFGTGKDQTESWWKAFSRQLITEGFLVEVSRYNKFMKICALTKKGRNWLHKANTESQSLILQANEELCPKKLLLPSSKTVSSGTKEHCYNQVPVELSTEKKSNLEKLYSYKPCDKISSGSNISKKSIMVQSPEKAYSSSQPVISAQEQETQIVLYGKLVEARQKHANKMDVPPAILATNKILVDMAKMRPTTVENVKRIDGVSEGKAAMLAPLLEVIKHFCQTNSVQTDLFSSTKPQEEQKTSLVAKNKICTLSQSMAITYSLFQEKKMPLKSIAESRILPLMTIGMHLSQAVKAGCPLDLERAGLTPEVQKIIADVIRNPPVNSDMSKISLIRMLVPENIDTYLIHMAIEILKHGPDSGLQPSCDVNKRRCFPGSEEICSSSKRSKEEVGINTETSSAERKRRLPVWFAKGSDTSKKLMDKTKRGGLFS

On to `CCO[C@H]1C[C@@H](COc2ccc(C(F)(F)F)cc2)[C@H](C(=O)O)[C@@H](c2ccc(N(C)S(=O)(=O)c3ccc4c(c3)nc(C)n4C)cc2)C1` (single isomer, unassigned) [Example 221], for which, in data set [1], the IC50 was 3.98 nM. Also, the fraction unbound at 4 h, 1 µM in data set [2] worked out at 0.0411. For the same molecule, the CC50 in data set [3] is 81.3 nM; in data set [4] (setting [5]), 2000 nM; in data set [4] (setting [6]) it was 2000 nM.
Regarding `Cc1nc2cc(S(=O)(=O)Nc3ccc([C@@H]4CCC[C@H](C(=O)Nc5ccc(C(F)(F)F)cc5F)[C@H]4C(=O)O)cc3)ccc2n1C` (single isomer, unassigned) [Example 224], the IC50 in data set [1] was 1.26 nM. Moreover, the fraction unbound at 4 h, 1 µM in data set [2] is 0.0355. The CC50 was 17.8 nM in data set [3], 501 nM in data set [4] (setting [5]) and 501 nM in data set [4] (setting [6]).
Turning to `Cc1nnc(-c2cc([C@@H]3CCC[C@H](C(=O)Nc4ccc(C(F)(F)F)cc4F)[C@H]3C(=O)O)ccc2C(F)(F)F)o1` (single isomer, unassigned) [Example 245], the IC50 in data set [1] was 7.94 nM. In addition, in data set [2], the fraction unbound at 4 h, 1 µM stood at 0.0971. Besides, the CC50 in data set [3] was 776 nM; in data set [4] (setting [5]), 7940 nM; in data set [4] (setting [6]), 7940 nM.
`CN[C@H]1C[C@H](c2ccc(N(C)S(=O)(=O)c3ccc4c(c3)nc(C)n4C)cc2)[C@@H](C(=O)O)[C@H](C(=O)Nc2ccc(C(F)(F)F)cc2F)C1` (single isomer, unassigned) [Example 254]: in data set [1], the IC50 was 25.1 nM. Besides, in data set [2], the fraction unbound at 4 h, 1 µM is 0.234. Further, the figures for the CC50 in data set [3] and in data set [4] (setting [5]) were 2340 nM and 10000 nM, respectively.
Turning to `CN[C@H]1C[C@H](C(=O)Nc2ccc(C(F)(F)F)cc2F)[C@@H](C(=O)O)[C@H](c2ccc(N(C)S(=O)(=O)c3ccc4c(c3)nc(C)n4C)cc2)C1` (single isomer, unassigned) [Example 255], the IC50 in data set [1] was 158 nM. In data set [2], the fraction unbound at 4 h, 1 µM came to 0.439. For the same molecule, the CC50 in data set [3] was 3470 nM; in data set [4] (setting [5]), 7940 nM; in data set [4] (setting [6]), 7940 nM.
Take `CN[C@@H]1C[C@H](c2ccc(N(C)S(=O)(=O)c3ccc4c(c3)nc(C)n4C)cc2)[C@@H](C(=O)O)[C@H](C(=O)Nc2ccc(C(F)(F)F)cc2F)C1` (single isomer, unassigned) [Example 256]: the IC50 in data set [1] was 1.26 nM. Also, the fraction unbound at 4 h, 1 µM in data set [2] amounted to 0.284. Also, the CC50 was 1780 nM in data set [3], 6310 nM in data set [4] (setting [5]) and 6310 nM in data set [4] (setting [6]).
Turning to `Cc1nc2cc(S(=O)(=O)N(C)c3ccc([C@H]4C[C@@H](C#N)C[C@@H](C(=O)Nc5ccc(C(F)(F)F)cc5F)[C@@H]4C(=O)O)cc3)ccc2n1C` (single isomer, unassigned) [Example 287], the IC50 in data set [1] is 1.58 nM. For the same molecule, in data set [2], the fraction unbound at 4 h, 1 µM was 0.156. For the same molecule, the results for the CC50 in data set [3], in data set [4] (setting [5]) and in data set [4] (setting [6]) were 61.7 nM, 398 nM and 398 nM, respectively.
On to `CC(=O)N[C@@H]1C[C@@H](COc2ccc(C(F)(F)F)cc2)[C@H](C(=O)O)[C@@H](c2ccc(N(C)S(=O)(=O)c3ccc4c(c3)nc(C)n4C)cc2)C1` (single isomer, unassigned) [Example 298], for which the IC50 in data set [1] is 501 nM. The fraction unbound at 4 h, 1 µM in data set [2] stood at 0.151. Moreover, the CC50 in data set [3] was 1510 nM; in data set [4] (setting [5]), 10000 nM.
For `Cc1nc2cc(S(=O)(=O)N(C)c3ccc([C@H]4C[C@@H](N5CCOCC5)C[C@@H](C(=O)Nc5ccc(C(F)(F)F)cc5F)[C@@H]4C(=O)O)cc3)ccc2n1C` (single isomer, unassigned) [Example 337], the IC50 in data set [1] was 1.58 nM. Further, the fraction unbound at 4 h, 1 µM in data set [2] came out at 0.224. Also, in data set [3] (SW48 pCC50 corrected with measured free fraction in cell assay media), the “Free Drug SW48 pCC50” value is listed as 7.45. Also, the “SW48 pCC50” value in data set [4] (setting [7]) is 6.8; in data set [4] (measured potency from Example B, as repeated in Table 3) it was 6.8.
For `Cc1nc2cc(S(=O)(=O)N(C)c3ccc([C@H]4C[C@@H](OCC5CC6CCC(C5)O6)C[C@@H](C(=O)Nc5ccc(C(F)(F)F)cc5F)[C@@H]4C(=O)O)cc3)ccc2n1C` (single isomer, unassigned) [Example 360], in data set [1], the IC50 is 5.01 nM. The fraction unbound at 4 h, 1 µM in data set [2] is 0.0942. Besides, the figures for the CC50 in data set [3], in data set [4] (setting [5]) and in data set [4] (setting [6]) were 5.89 nM, 63.1 nM and 63.1 nM, respectively.
For the molecule `Cc1nc2cc(S(=O)(=O)N(C)c3ccc([C@@H]4CC(F)(F)C[C@H](C(=O)Nc5ccc(C(F)(F)F)cc5F)[C@H]4C(=O)O)cc3)ccc2n1C` (single isomer, unassigned) [Example 364], the IC50 in data set [1] is 631 nM. Further, in data set [2], the fraction unbound at 4 h, 1 µM is 0.113. The CC50 in data set [3] is 1120 nM; in data set [4] (setting [5]) it was 10000 nM.
As to `Cc1nc2cc(S(=O)(=O)N(C)c3ccc([C@H]4CCC[C@@H](C(=O)Nc5ccc(C(F)(F)F)cc5F)[C@@H]4C(=O)O)cc3F)ccc2n1C` (single isomer, unassigned) [Example 368], the IC50 in data set [1] was 5.01 nM. Also, in data set [2], the fraction unbound at 4 h, 1 µM was determined as 0.128. Moreover, the CC50 in data set [3] is 102 nM; in data set [4] (setting [5]), 794 nM; in data set [4] (setting [6]), 794 nM.
For the molecule `Cc1nc2cc(S(=O)(=O)N(C)c3ccc([C@H]4CCC[C@@H](C(=O)Nc5ccc(C(F)(F)F)cc5F)[C@@H]4C(=O)O)c(F)c3)ccc2n1C` (single isomer, unassigned) [Example 374], in data set [1], the IC50 was 3.98 nM. Further, in data set [2], the fraction unbound at 4 h, 1 µM amounted to 0.113. Moreover, the CC50 was 44.7 nM in data set [3] and 398 nM in data set [4] (setting [6]). Moreover, the “SW48 pCC50” value in data set [4] (setting [7]) is reported as 6.4.
`Cc1nc2cc(S(=O)(=O)N(C)c3ccc([C@@H]4C[C@@H]5COC[C@@H]5[C@@H](C(=O)Nc5ccc(C(F)(F)F)cc5F)[C@@H]4C(=O)O)cc3)ccc2n1C` (single isomer, unassigned) [Example 389]: the IC50 in data set [1] was 5.01 nM. In data set [2], the fraction unbound at 4 h, 1 µM was determined as 0.235. The CC50 in data set [3] was 589 nM; in data set [4] (setting [5]), 2510 nM; in data set [4] (setting [6]) it was 2510 nM.
`CCCO[C@@H]1C[C@H](c2ccc(N(C)S(=O)(=O)c3ccc4c(c3)nc(C)n4C)cc2)[C@@H](C(=O)O)[C@H](C(=O)Nc2ccc(C(F)(F)F)cc2F)C1` (stereo in doubt) [Example 151, rel-(1R,2R,4R,6S)-2-((2-fluoro-4-(trifluoromethyl)phenyl)carbamoyl)-4-propoxy-6-(4-((N,1,2-trimethyl-1H-benzo[d]imidazole)-5-sulfonamido)phenyl)cyclohexane-1-carboxylic acid]: in data set [1], the IC50 is 3.16 nM. The fraction unbound at 4 h, 1 µM in data set [2] amounted to 0.0233. Also, the values for the CC50 in data set [3], in data set [4] (setting [5]) and in data set [4] (setting [6]) were 11.7 nM, 501 nM and 501 nM, respectively.
As for `Cc1nc2cc(S(=O)(=O)N(C)c3ccc([C@H]4C[C@@H](OCC5CCC5)C[C@@H](C(=O)Nc5ccc(C(F)(F)F)cc5F)[C@@H]4C(=O)O)cc3)ccc2n1C` (stereo in doubt) [Example 154, rel-(1R,2R,4R,6S)-4-(cyclobutylmethoxy)-2-((2-fluoro-4-(trifluoromethyl)phenyl)carbamoyl)-6-(4-((N,1,2-trimethyl-1H-benzo[d]imidazole)-5-sulfonamido)phenyl)cyclohexane-1-carboxylic acid], in data set [1], the IC50 is 3.98 nM. For the same molecule, the fraction unbound at 4 h, 1 µM in data set [2] was 0.0127. In addition, the CC50 in data set [3] was 5.01 nM; in data set [4] (setting [5]), 398 nM; in data set [4] (setting [6]), 398 nM.
